# In patent US20240082342A1, “PEPTIDE THERAPEUTICS FOR INCREASING LUNG CELL VIABILITY” (BOARD OF REGENTS, THE UNIVERSITY OF TEXAS SYSTEM, priority 2018, published 2024):
# “Also recorded” adds a separate entry of the source.
# Experiments:
# human COPD lung tissues = test: Human COPD lung tissues treated ex vivo for 72 h; format: cell-based; details: for active caspase-3 in AT2 cells isolated from treated tissue: COPD tissue ex vivo
# Procedure: Lung tissues from control subjects and patients with COPD were treated with or without CSP7 for 72 h ex vivo or in vitro. Lung homogenates were analyzed for immunoblot and Real time PCR.
# Treatment of human lung tissues with CSP7 ex vivo. For ex vivo studies, de-identified human COPD lung tissues and histologically “normal” lung (nL) tissues were obtained from transplant recipients and from the Gift of Life Donor Program (www.donors1.org) from Temple University, Philadelphia, PA, USA.
# Ex vivo studies using human lung tissues without patient identity was approved by the Institutional (UTHSCT) Review Board (IRB) through exempt protocol #12-003. nL and COPD tissues (n=4-5) were treated with or without CSP7 for 72 h ex vivo as described previously (Marudamuthu et al, 2019). Total protein and RNA extracted from the lung tissues were analyzed by Western blotting and qPCR for MUC5AC protein and mRNA, respectively. In separate experiments, AT2 cells isolated from nL and COPD lungs were treated with CSP7 or CP and immunoblotted for changes in senescence or apoptosis, p53, PAI-1 and SP-C expression. Similarly, nL and COPD tissues were treated with or without CSP7 or CP for 72 h ex vivo and AT2 cells isolated from these tissues were analyzed for senescence or apoptosis, p53, PAI-1 and SP-C.
# WT mice exposed to PTS = test: Passive tobacco smoke (PTS) exposed WT mice treated IP with CSP or CSP7 once a week; format: in vivo, mouse; details: for p53, PAI-1 expression and apoptosis in A2Cs/A2ECs: PTS (or IL-17A) exposure; for pulmonary influx of CD4- and CD8-positive T cells, macrophages and neutrophils: PTS exposed mice
# Procedure: Four weeks after initiation of PTS exposure, the WT mice were administered an intraperitoneal injection of vehicle or CSP (18.75 mg/kg body wt) or control peptide (CP) once a week for the next 4 weeks. Exposure to PTS was continued for another 12 weeks. BAL fluid and lysates (CL) from A2ECs isolated from PTS exposed WT mice treated with vehicle, CSP or CP were immunoblotted for p53 and PAI-1 and activation of caspase-3. -β-actin was tested for similar loading. […] The process involves inhibition of p53-induced PAI-1 expression.
# FIGS. 57A-57C show inhibition of PTS-induced IL-17A by CSP in WT mice. Four weeks after initiation of PTS exposure as in FIG. 56, the WT mice were administered an intraperitoneal (IP) injection of vehicle or CSP (18.75 mg/kg body wt) or control peptide (CP) once a week for the next 4 weeks. Exposure to PTS was continued for another 12 weeks. Lung sections (A), lung homogenates (B) and total RNA (C) were analyzed for IL-17A and IL-17R mRNA expression by qRT-PCR.
# FIGS. 60A-60B show inhibition of PTS-induced p53^AC, p53^S15 and p53, PAI-1, apoptosis and senescence by CSP7 in WT mice. Four weeks after initiation of PTS exposure as in FIG. 56, the WT mice were IP injected with vehicle or CSP7 or CP once a week for the next 4 weeks. Exposure to PTS was continued for another 12 weeks. (A) Lung sections were subjected IHC analysis for p53 and PAI-1. (B) A2ECs isolated from the lungs of these mice were immunoblotted for above mentioned proteins.
# Wild-type (WT) and p53- and PAI-1-deficient mice of C57BL/6 background were bred in the inventor's facilities or were purchased from Jackson Laboratories. These mice were exposed to passive TSE from 40 research cigarettes over a 2 hour period 5 days/week for 20 weeks (^˜90 mg/m3 total solid particulates) by using a mechanical smoking chamber (Teague Enterprises, Davis, CA). Control mice were exposed to ambient air. Four weeks after initiation of passive TSE exposure, the mice were administered an intraperitoneal injection of CSP7 or scrambled control peptide (CP) (18.75 mg/kg body wt) once a week for 4 weeks (Marudamuthu et al. Am J Pathol 185: 55-68, 2015); Tiwari et al., supra). Mice were killed, and their lungs were used for further analyses (Bhandary et al., supra).
# [1] = mice; cited from earlier work
# A2Cs of IL-17A^−/− mice = test: Tobacco smoke exposure of IL-17A-/- mice; format: in vivo, mouse; details: 20 weeks TS; for IHC Trf1 or Trf2 antigen staining: IL-17A-deficient mice
# Procedure: Mouse models and CSP7 treatment. All experiments involving mice were performed according to the approved protocols under the guidelines of Institutional Animal Care and Use Committee. Wild type (WT), and PAI-1^−/− and uPA^−/− mice of C57BL/6 background purchased from Jackson Laboratory (Bar Harbor, ME) were used for the experiments. IL-17A^−/− mice were obtained from University of Tokyo, Japan.
# To test the effect of chronic TS exposure induced lung injury, these mice were exposed to passive TS from 40 research cigarettes over a 4 h period 5 days/week for 20 weeks (˜90 mg/m3 total solid particulates) using a mechanical smoking chamber (Teague Enterprises, Davis, CA) as described earlier. (Bhandary et al, 2015). Control mice were kept in ambient air. After sixteen weeks of daily passive TS exposure, mice with TS exposure injury were treated with CSP7 at a dosage of 1.5 mg/kg body weight daily 5 days/week for the next four weeks. These mice were continued with daily exposure of 4 h of TS during CSP7 treatment. At the end of the experiment (after 20 weeks of TS exposure), the mice were euthanized, and lungs were utilized for further analyses. To expand the local delivery options of CSP7 to directly treat the damaged lung by air-jet milling for dry powder inhalation (DPI). Mice exposed to TSE were treated with CSP7 using a rotating brush generator for 15 min daily for 7 days. Fourteen days later, BLM mice were subjected to daily inhalation of micronized CSP7 (0.05 mg/kg/d) DP through air-jet-milling for seven consecutive days using a rotating brush exposure system. The rotating brush exposure system gave a consistent minimal chamber concentration of 0.1 mg/L. In order to match dosing of DP inhalation, animal exposure times were adjusted to approximately 15 minutes and an estimated dose of 0.05 mg/kg/d or 1.00 microgram/lung was administered.
Substance,"MUC5AC, HDAC6, SPDEF, Ac-Tubulin, FOXA2 and other MCM markers (Western blot) (human COPD lung tissues; COPD tissue, 10 μM, 72 h)","p53, PAI-1 expression and apoptosis in A2Cs/A2ECs (WT mice exposed to PTS)","pulmonary influx of CD4- and CD8-positive T cells, macrophages and neutrophils (WT mice exposed to PTS)","lung volume (micro-CT) (WT mice exposed to PTS; WT mice, 20 weeks PTS)","Cav1 expression in A2ECs (WT mice exposed to PTS; WT mice, PTS)","PTS-induced IL-17A (and IL-17R) in the lungs (WT mice exposed to PTS; WT mice, PTS)","acetylated p53, serine-15 phosphorylated p53, total p53 and Sirt1 in A2ECs (WT mice exposed to PTS; WT mice, PTS)","miR-34a expression in A2ECs (WT mice exposed to PTS; WT mice, PTS)",tolerability [1],telomere shortening in A2Cs (A2Cs of IL-17A^−/− mice; IL-17A-/- mice),IHC Trf1 or Trf2 antigen staining (A2Cs of IL-17A^−/− mice),active caspase-3 in AT2 cells isolated from treated tissue (human COPD lung tissues),"MUC5AC, HDAC6, FOXA3, CAV1 and FOXA2 mRNA (human COPD lung tissues; COPD tissue, 10 μM, 72 h)",also measured
"DGIWKASFTTFTVTKYWFYR (listed as Homo sapiens) [CSP, 20 residue caveolin-1 scaffolding domain peptide]",reverse,mitigates A2EC apoptosis,"inhibits pulmonary influx of CD4- and CD8-positive T cells, macrophages and neutrophils",significantly reduced; also recorded: reduced lung volumes,without affecting Cav1 expression; also recorded: without inhibiting PTS-induced Cav1,inhibits PTS-induced accumulation of IL-17A in the lungs; also recorded: significantly inhibited PTS-induced IL-17A and IL-17R levels,"blocked ^p15Sp53; also recorded: inhibits acetylation; also recorded: restoration of Sirt1; also recorded: reduced p53^AC, p53^S15 and total p53 levels, and restored baseline Sirt1 expression",suppression of miR-34a expression; also recorded: significantly inhibited,well-tolerated,,,,,"lung inflammation, pulmonary PMN accumulation (MPO) (WT mice exposed to PTS; WT mice, 20 weeks PTS): significantly suppresses lung inflammation; Cav1 binding with PP2Ac in A2ECs (WT mice exposed to PTS; WT mice, PTS): inhibited the PTS-induced binding of Cav1 with PP2Ac"
"WGIDKAFFTTSTVTYKWFRY [CP, scrambled control peptide with the same amino acid composition as CSP, reference compound]",,,,,,,"still showed elevated p53^AC, p53^S15, total p53 and PAI-1",,,minimal effect,little change in Trf1 or Trf2 antigen staining,otherwise increased,failed to respond,
"FTTFTVT (listed as Homo sapiens) [CSP7, heptapeptide fragment of the caveolin-1 scaffolding domain peptide CSP]",reverse; also recorded: reduced MUC5AC and other MCM markers,inhibited PTS or IL-17A exposure induced p53,"inhibits pulmonary influx of CD4- and CD8-positive T cells, macrophages and neutrophils; also recorded: reversed",significantly reduced; also recorded: reduced lung volumes,without inhibiting PTS-induced Cav1,inhibits PTS-induced accumulation of IL-17A in the lungs,"reduced p53^AC, p53^S15 and total p53 levels, and restored baseline Sirt1 expression",reduced miR-34a,well-tolerated,minimal effect,little change in Trf1 or Trf2 antigen staining,reduced active caspase-3,"parallel inhibition of MUC5AC, HDAC6, FOXA3 and CAV1 mRNA with an increase in FOXA2 mRNA","baseline telomerase activity (A2Cs of IL-17A^−/− mice; IL-17A-/- mice): limited effects on baseline telomerase activity; PP2A and CIP2A mRNA (human COPD lung tissues; COPD tissue): significantly reversed; baseline CAV1, p53 and PAI-1 (human COPD lung tissues; COPD tissue, 10 μM, 72 h): suppression of baseline CAV1, p53, and PAI-1; p53 and SP-C in AT2 cells isolated from treated tissue (human COPD lung tissues; COPD tissue, 72 h ex vivo): reduction in p53 while restoring baseline SP-C expression; effect in nL tissues (human COPD lung tissues; normal lung tissue ex vivo): minimal effect; PAI-1, p53^AC, p53^S15, cleaved Caspase-3 and beta-galactosidase in lung sections and A2ECs (WT mice exposed to PTS; WT mice, 20 weeks PTS): markedly reduced; p53 and PAI-1 in BAL fluids and lung homogenates (WT mice exposed to PTS; injected 4 weeks after initiation of TSE, 20 weeks): significantly suppressed the expression of p53 and PAI-1"
